We go through five molecules from patent US20240009205A1, “THERAPEUTIC COMBINATION FOR THE TREATMENT OF BREAST CANCER” (IFOM - FONDAZIONE ISTITUTO FIRC DI ONCOLOGIA MOLECOLARE, priority 2020, published 2024).

Where two headings read alike, the source gives them in different places.

The subject of assay [1] is metastases-derived organoids from patients with HR+ BC. Nature of the assay: organoid viability assay. Format: cell-based, human. Particulars: TMX with STS medium.
The next assay deals with HR+/HER2− BC cell lines. Particulars: cited from earlier work.
Assay [2] concerns MCF7 cells. Nature of the assay: gene expression microarrays and GSEA in MCF7. To be noted: 5 μM TMX combined with STS. Format: cell-based, human.
Assay [3] has as its system ER transcriptional activity. Nature of the assay: ER luciferase reporter assay and ER target gene expression. The assay is classed as cell-based, human. To be noted: HR+ BC cell lines, TFF1, PGR, GREB1 expression. Background: In a reporter assay the amount or activity of a reporter protein is the signal.
Assay [4] has as its system EGR1, PTEN and 4E-BP1 levels in MCF7 cells. Nature of the assay: immunoblotting of EGR1, PTEN and 4E-BP1 in MCF7. Format: cell-based, human. To be noted: supplementation. The method, then:
For protein lysate generation from cultured cells, 5×10^4 MCF7, T47D or ZR-75-1 cells were plated in 6-well plates in CTR medium. After 24 h medium was removed, cells were washed with PBS and incubated either in CTR or STS medium. […] Where indicated, cells were supplemented with insulin ([…]), IGF1 (5 ng/ml), leptin ([…]), or 17β-estradiol (100 nM). 24 h later, cells were washed and protein lysates were generated as described elsewhere^34,35. Protein lysates from primary tumors or mouse uteri were obtained using TissueRuptor (Quiagen). Proteins (35 μg) were separated by SDS-PAGE, transferred to a PVDF membrane (Immobilon-P, Millipore S.p.A.), and detected with the following antibodies: anti-phospho-AKT (Ser473; #4058), anti-AKT (#9272), anti-PTEN (#9552), anti-phospho-p70S6kinase (Thr389; #9206), anti-p70S6kinase (#9202), anti-4E-BP1 (#4923), anti-phospho-eIF4E ([…]; #9741), anti-phospho-RB (Ser807/811; #9308), anti-RB (#9309), anti-CCND1 (#2978) were all from Cell Signaling Technology; anti-phospho-AMPK (Thr172; PA5-2 17831), anti-AMPK (PA5-29679), anti-EGR1 (MA5-15008) were from Thermo Fisher; anti-β-actin was from Santa Cruz Biotechnology. Band intensities were quantified by Quantity One SW software (Bio-Rad Laboratories, Inc.) using standard enhanced chemiluminescence.
(In western blotting, separated proteins are transferred to a membrane and probed.)

The subject of assay [5] is MCF7 cells. Nature of the assay: cell viability assay, control and EGR1-silenced MCF7. The assay is classed as cell-based, human.

Regarding `CC/C(=C(\c1ccccc1)c1ccc(OCCN(C)C)cc1)c1ccccc1` [TMX, tamoxifen], in assay [1], the “antitumor activity under STS” value is recorded as “increased the antitumor activity”. The “antitumor activity under STS (low-serum, low-glucose)” value in the assay on HR+/HER2− BC cell lines was “increased the antitumor activity”. For the same molecule, in the assay with MCF7 cells [2], the “cell cycle-related gene categories (GSEA)” value is recorded as “downregulation”. Besides, the “ER inhibition under STS” value in assay [3] is recorded as “enhanced”.
With `C[C@]12CC[C@@H]3c4ccc(O)cc4CC[C@H]3[C@@H]1CC[C@@H]2O` [17β-estradiol], the “increase in EGR1, PTEN and 4E-BP1 induced by the TMX-STS combination” value in assay [4] was “prevented the increase in EGR1, PTEN and 4E-PBP1”.
Regarding `C[C@]12CC[C@@H]3c4ccc(O)cc4C[C@@H](CCCCCCCCC[S+]([O-])CCCC(F)(F)C(F)(F)F)[C@H]3[C@@H]1CC[C@@H]2O` (stereo partly drawn) [FULV, fulvestrant], the “antitumor activity under STS (low-serum, low-glucose)” value in the assay with HR+/HER2− BC cell lines is on record as “increased the antitumor activity”. The “ER inhibition under STS” value in assay [3] is listed as “enhanced”.
Turning to `CC(C)NC[C@@H](C(=O)N1CCN(c2ncnc3c2[C@H](C)C[C@H]3O)CC1)c1ccc(Cl)cc1` [GDC0068], the “protection of EGR1-silenced BC cells from combined ET and STS” value in the assay on MCF7 cells [5] (GDC0068 1 μM, AZD5363 400 nM, LY294002 2 μM) is given as “abolished such protection”.
Regarding AZD5363, in the assay with MCF7 cells [5], the “protection of EGR1-silenced BC cells from combined ET and STS” value is listed as “abolished such protection”.
